Patent US20070249678A1, “SYNTHESIS AND USES OF PYROGLUTAMIC ACID DERIVATIVES” (Prodimed, S.A., priority 2006, published 2007)
Entries after “also recorded” stand apart in the source; their conditions may differ.

Assays:
[1] = test system: Renca cells (renal cell carcinoma); experiment: Effect of the isomers on in vivo tumour growth in mice challenged with Renca cells; settings: for Tumour surface, overall values (Mean) / Tumour surface, overall values (Median) / Tumour volume, overall values (Mean) / Tumour volume, overall values (Median): 260 ng/mouse i.p. on days 6, 7 and 14, s.c. Renca in Balb/c mice; for Inhibitory effect on in vivo Renca tumour growth (conclusion in words): 260 ng i.p. on days 6, 7 and 14, Balb/c mice
Source text: This assay was made in order to check the effect of each stereoisomer on in vivo tumour growth in mice challenged with Renca cells. Their effect was compared with placebo. The stereoisomers assayed were: • Isomer 1: 3R,5S-1-(3-Amino-5-carboxy-2-oxopyrrolidin-3-ylmethyl)pyridinium bromide hidrobromide (9b) • Isomer 2: 3R,5R-1-(3-Amino-5-carboxy-2-oxopyrrolidin-3-ylmethyl)pyridinium bromide hidrobromide (9c) • Isomer 3: 3S,5S-1-(3-Amino-5-carboxy-2-oxopyrrolidin-3-ylmethyl)pyridinium bromide hidrobromide (9a) • Isomer 4: 3 S,5R-1-(3-Amino-5-carboxy-2-oxopyrrolidin-3-ylmethyl)pyridinium bromide hidrobromide (9d)
Renca is a renal cell carcinoma originated in Balb/c mouse strain, and therefore syngeneic in mice with Balb/c genetic background [Melder R J et al., Cancer Immunol. Immunother., 2005, 54:535-547; Felluga B et al., 1969, J. Natl. Cancer Inst. 43:319-333]. Renca is considered a moderate immunogenic tumour and used as suitable model for testing immunointervention approaches [Salup R R, et al., 1992, The Journal of Urology, 147:1120-1123].
Renca cells (CLS, Eppelheim, Germany) were maintained in vitro by serial passages every 3-4 days. Cultures were performed with RPMI medium medium (RPMI, 10% foetal calf serum, 2 mM L-glutamine, non essential amino acids, 1 mM sodium pyruvate, 20 mM HEPES, 80 μg/mL gentamycin; all of them were purchased from Sigma, St. Louis, Mo., USA) by seeding 5×10^6 cells onto 75 cm^2 culture flasks. Tumour cells collected from 48 hour cultures upon trypsinization (Sigma, St. Louis, Mo., USA) were used as source of Renca cells for the studies described below.
Each isomer was tested at the dose levels of 260 ng administered on days 6, 7 and 14 after tumour inoculation.
The treatments were given by intraperitoneal route. The volume inoculated was 0.2 mL/animal. This route was chosen because it is the one described in the original method [Perez S, et al., 2003, Clinical Cancer Research. 9:5776-5785].
Tumours were established by subcutaneous inoculation in the right hind flank. Mice (Balb/c) were inoculated with 0.2 mL containing 105 viable Renca cells. The day of subcutaneous inoculation will be considered Day 0 of the test.
Balb/c mice inoculated with Renca cells were distributed into 5 experimental groups:
Mice were observed daily and the tumour size recorded twice a week. This was carried out by measuring two perpendicular diameters (L/W) with a calliper. These measures were used to obtain both tumour surface and volume:
Tumour surface=L×W (mm^2)
Tumour volume=L×W^2×½(mm^3)
Results were expressed as single values and/or as the mean±SD or median from each experimental group.
A case-control study was performed with treated and control mice in order to determine whether differences between isomers and administration of placebo were present. The data obtained (tumoral surface and volume) were tested for Normal distribution within the groups—Kolmogorov Smimov test p<0,05—. […] The U-test of Mann Withney was chosen for being one of the better known non-parametrical tests, anyway, results for this test are equivalent both to those of Wilcoxon's sum of ranges and Kruskal-Wallis two-groups test.
Due to the high dispersion of data, outlayers (animals beyond percentile 25 or above percentile 75 for tumour surface at day 25) were excluded of the study.

[2] = Solubility observed during purification attempts; format: physicochemical; settings: mixture of stereoisomers
Source text: Also, its immediate precursor BLAS-320(Ac) (1-(1-acetyl-3-acetylamino-5-carboxy-2-oxopyrrolidin-3-ylmethyl)pyridinium acetate) [drawing 7] was synthesized using different procedures.

[3] = day 11 after tumour inoculation
[4] = day 14 after tumour inoculation
[5] = day 18 after tumour inoculation
[6] = day 21 after tumour inoculation
[7] = day 25 after tumour inoculation

Row | SMILES | Tumour surface, overall values (Mean) ([1]; day 0 after tumour inoculation) | Tumour surface, overall values (Median) ([1]; day 0 after tumour inoculation) | Tumour volume, overall values (Mean) ([1]; day 0 after tumour inoculation) | Tumour volume, overall values (Median) ([1]; day 0 after tumour inoculation) | Tumour surface, overall values (Mean) [1, 3] | Tumour surface, overall values (Median) [1, 3] | Tumour volume, overall values (Mean) [1, 3] | Tumour volume, overall values (Median) [1, 3] | Tumour surface, overall values (Mean) [1, 4] | Tumour surface, overall values (Median) [1, 4] | Tumour volume, overall values (Mean) [1, 4] | Tumour volume, overall values (Median) [1, 4] | Tumour surface, overall values (Mean) [1, 5] | Tumour surface, overall values (Median) [1, 5] | Tumour volume, overall values (Mean) [1, 5] | Tumour volume, overall values (Median) [1, 5] | Tumour surface, overall values (Mean) [1, 6] | Tumour surface, overall values (Median) [1, 6] | Tumour volume, overall values (Mean) [1, 6] | Tumour volume, overall values (Median) [1, 6] | further results
1 | Br.N[C@@]1(C[n+]2ccccc2)C[C@@H](C(=O)O)NC1=O.[Br-] (single isomer, unassigned; isomer 1) [isomer 1, 3R,5S-1-(3-Amino-5-carboxy-2-oxopyrrolidin-3-ylmethyl)pyridinium bromide hidrobromide] | 0 mm^2 | 0 mm^2 | 0 mm^3 | 0 mm^3 | 1.2 mm^2 | 0 mm^2 | 1.73 mm^3 | 0 mm^3 | 14.1 mm^2 | 12.5 mm^2 | 36.88 mm^3 | 22.75 mm^3 | 44.07 mm^2 | 36 mm^2 | 174.37 mm^3 | 108 mm^3 | 86.6 mm^2 | 81 mm^2 | 429.07 mm^3 | 329.25 mm^3 | Tumour surface, overall values (Mean) [1, 7]: 149.97 mm^2; Tumour surface, overall values (Median) [1, 7]: 160.5 mm^2; Tumour volume, overall values (Mean) [1, 7]: 895.58 mm^3; Tumour volume, overall values (Median) [1, 7]: 907.5 mm^3
2 | Br.N[C@@]1(C[n+]2ccccc2)C[C@H](C(=O)O)NC1=O.[Br-] (single isomer, unassigned; isomer 2) [isomer 2, 3R,5R-1-(3-Amino-5-carboxy-2-oxopyrrolidin-3-ylmethyl)pyridinium bromide hidrobromide] | 0 mm^2 | 0 mm^2 | 0 mm^3 | 0 mm^3 | 1.6 mm^2 | 0 mm^2 | 2.34 mm^3 | 0 mm^3 | 14.46 mm^2 | 9 mm^2 | 32.05 mm^3 | 13.5 mm^3 | 55.14 mm^2 | 42 mm^2 | 217.43 mm^3 | 126 mm^3 | 96.86 mm^2 | 77 mm^2 | 453.89 mm^3 | 278.75 mm^3 | Tumour surface, overall values (Mean) [1, 7]: 156.53 mm^2; Tumour surface, overall values (Median) [1, 7]: 140 mm^2; Tumour volume, overall values (Mean) [1, 7]: 938.48 mm^3; Tumour volume, overall values (Median) [1, 7]: 613.25 mm^3; Deaths of mice in treatment group ([1]; second week after tumour inoculation, 260 ng i.p., animals excluded): Two mice from isomer 2 group died for unknown causes
3 | Br.N[C@]1(C[n+]2ccccc2)C[C@@H](C(=O)O)NC1=O.[Br-] (single isomer, unassigned; isomer 3) [isomer 3, 3S,5S-1-(3-Amino-5-carboxy-2-oxopyrrolidin-3-ylmethyl)pyridinium bromide hidrobromide] | 0 mm^2 | 0 mm^2 | 0 mm^3 | 0 mm^3 | 0.3 mm^2 | 0 mm^2 | 0.28 mm^3 | 0 mm^3 | 7.5 mm^2 | 4 mm^2 | 14.55 mm^3 | 4 mm^3 | 31 mm^2 | 18 mm^2 | 101.4 mm^3 | 36 mm^3 | 64.57 mm^2 | 45.5 mm^2 | 278.15 mm^3 | 148.75 mm^3 | Inhibitory effect on in vivo Renca tumour growth (conclusion in words) [1]: inhibit the in vivo growth of the renal cell carcinoma (Renca); Tumour surface, overall values (Mean) [1, 7]: 106.17 mm^2; Tumour surface, overall values (Median) [1, 7]: 90 mm^2; Tumour volume, overall values (Mean) [1, 7]: 557.18 mm^3; Tumour volume, overall values (Median) [1, 7]: 405 mm^3; p of differences in Renca tumour growth rate vs. placebo (surface or volume), Mann-Whitney U test ([1]; days 18th and 25th of tumour development, 260 ng i.p.): < 0.05
4 | Br.N[C@]1(C[n+]2ccccc2)C[C@H](C(=O)O)NC1=O.[Br-] (single isomer, unassigned; isomer 4) [isomer 4, 3 S,5R-1-(3-Amino-5-carboxy-2-oxopyrrolidin-3-ylmethyl)pyridinium bromide hidrobromide] | 0 mm^2 | 0 mm^2 | 0 mm^3 | 0 mm^3 | 0 mm^2 | 0 mm^2 | 0 mm^3 | 0 mm^3 | 2.87 mm^2 | 0 mm^2 | 4.73 mm^3 | 0 mm^3 | 15.47 mm^2 | 9 mm^2 | 40.67 mm^3 | 13.5 mm^3 | 37.37 mm^2 | 25 mm^2 | 126.42 mm^3 | 62.5 mm^3 | Inhibitory effect on in vivo Renca tumour growth (conclusion in words) [1]: inhibit the in vivo growth of the renal cell carcinoma (Renca); also recorded: highest inhibitory effect on Renca tumour growth; p of differences in Renca tumour growth rate vs. placebo (surface or volume), Mann-Whitney U test ([1]; all days scored after the day 14th of tumour development, 260 ng i.p.): < 0.01; Tumour surface, overall values (Mean) [1, 7]: 81.3 mm^2; Tumour surface, overall values (Median) [1, 7]: 63.5 mm^2; Tumour volume, overall values (Mean) [1, 7]: 372.82 mm^3; Tumour volume, overall values (Median) [1, 7]: 238.25 mm^3
5 | CC(=O)NC1(C[n+]2ccccc2)CC(C(=O)O)N(C(C)=O)C1=O (stereo not drawn) [BLAS-320(Ac), 1-(1-acetyl-3-acetylamino-5-carboxy-2-oxopyrrolidin-3-ylmethyl)pyridinium acetate] | – | – | – | – | – | – | – | – | – | – | – | – | – | – | – | – | – | – | – | – | Solubility (in words) [2]: only soluble in water and methanol
